According to publication PMC10403511, “DNA-encoded chemical libraries yield non-covalent and non-peptidic SARS-CoV-2 main protease inhibitors” (Communications Chemistry, 2023):
Like-named read-outs stand apart in the source and are kept apart here.

Assays:
cathepsin B = molecular target: T1, cathepsin B (Homo sapiens, UniProt P07858); assay: Human protease off-target assay, commercial kit; type: biochemical; conditions: 10 µM compound
T1 construct: purchased BPS Bioscience 79590
Description: (§1) These assays were done exactly as we described earlier. In brief, commercial kits were used for all four human proteases as follows: Cathepsin B (BPS Bioscience, #79590), Renin (BPS Bioscience, #80211), Thrombin (Sigma-Aldrich, #MAK243), and MMP-1 (Biovision, #K794-100). All assays were run in kinetic mode and at RT, except MMP-1, which was run at 37 °C. Positive controls were used for all assays, i.e., E64 for Cathepsin B, Aliskiren for Renin, CDD-1472 for Thrombin, and GM 6001 for MMP-1. Activities were obtained from linear initial progress curves, and fractional activities were calculated from reactions with no inhibitors[17],[19],[34].
(§2) Supplementary Figure 4. Potential off-target inhibition of major proteases, i.e. thrombin (a serine protease), cathepsin B (a cysteine protease like Mpro), renin (an
(§3) control inhibitors as indicated. S9 […]

[1] = molecular target: T2, matrix metallopeptidase-1 (MMP-1) (Homo sapiens, UniProt P03956); assay: Human protease off-target assay, commercial kit; type: biochemical; conditions: 10 µM compound, 37 °C
T2 construct: purchased Biovision K794-100
T2 sequence (P03956 100-469): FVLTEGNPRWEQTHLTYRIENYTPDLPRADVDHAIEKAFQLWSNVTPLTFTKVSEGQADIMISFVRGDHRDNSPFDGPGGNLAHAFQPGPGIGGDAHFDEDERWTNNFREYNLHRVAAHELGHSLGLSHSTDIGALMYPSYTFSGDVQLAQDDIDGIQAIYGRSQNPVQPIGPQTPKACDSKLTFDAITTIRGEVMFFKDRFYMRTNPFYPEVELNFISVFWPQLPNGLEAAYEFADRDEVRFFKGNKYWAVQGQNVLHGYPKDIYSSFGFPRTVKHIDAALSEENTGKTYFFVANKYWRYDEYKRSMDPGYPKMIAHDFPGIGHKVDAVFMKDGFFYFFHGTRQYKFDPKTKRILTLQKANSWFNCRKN
Description: as §1, §2, §3

renin = molecular target: T3, renin (Homo sapiens, UniProt P00797); assay: Human protease off-target assay, commercial kit; type: biochemical; conditions: 11.1 µM compound
T3 construct: purchased BPS Bioscience 80211
T3 sequence (P00797 67-406): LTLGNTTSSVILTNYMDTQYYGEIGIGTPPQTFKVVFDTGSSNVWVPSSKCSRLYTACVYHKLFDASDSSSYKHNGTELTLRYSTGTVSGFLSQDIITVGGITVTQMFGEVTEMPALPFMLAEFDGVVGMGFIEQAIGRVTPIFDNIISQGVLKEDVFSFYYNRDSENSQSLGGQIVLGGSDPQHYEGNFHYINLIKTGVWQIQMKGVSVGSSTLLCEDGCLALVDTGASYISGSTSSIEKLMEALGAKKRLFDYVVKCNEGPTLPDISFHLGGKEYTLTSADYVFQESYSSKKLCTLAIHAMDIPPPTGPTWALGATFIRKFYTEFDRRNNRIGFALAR
Description: as §1, §2, §3

thrombin = molecular target: T4, thrombin (Homo sapiens, UniProt P00734); assay: Human protease off-target assay, commercial kit; type: biochemical; conditions: 10 µM compound
T4 construct: purchased Sigma-Aldrich MAK243
Description: as §1, §2, §3

HepG2 cells [2] = type: in vitro ADME; conditions: 10 μM, 2 h
Description: The plate was incubated at 37 °C for another 2 h, and the medium in the plate was then decanted. The cells were rinsed with 1 mL of 1× DPBS three times, trypsinized at 37 °C for 3.5 min, centrifuged, and the cell pellets from each well were reconstituted in 500 μL of MeOH/H2O (vol/vol 1/1). […] The mixtures were centrifuged at 15,000 rcf for 15 min. Three microliters of the supernatant were injected into UHPLC-Q Exactive Orbitrap MS (Thermo Fisher Scientific) equipped with a 50 × 4.6-mm column (XDB C-18; Agilent Technologies) for analysis. The column temperature was set at 40 °C. The mobile phase system was (A) water (containing 0.1% formic acid) and (B) acetonitrile (containing 0.1% formic acid), with a flow rate of 0.3 mL/min. The gradient elution program was set as follows: 0 to 0.25 min, 40% B; 0.25 to 1.5 min, 40 to 98% B; 1.5 to 3.5 min, 98% B; 3.5 to 3.8 min, 98 to 40% B; 3.8 to 5 min, 40% B. Ultrapure nitrogen was used as the sheath (45 arbitrary units), auxiliary (10 arbitrary units), and sweep (1.0 arbitrary unit) gas. The capillary and auxiliary gas temperatures were 275 °C and 380 °C, respectively. The spray voltage was 3.75 kV. […]
were expressed as the intracellular concentrations (peak areas) of these compounds. […]
and homogenized. The intracellular concentrations were measured with UHPLC-Q E xa ct ive Orbitrap MS. ND stands for “not detected”.

[3] = type: in vitro ADME, human; conditions: 10 μM
Description: (§4) At time points of 0, 30, 60, and 120 min, 15 μL of the samples were taken out, and the reactions were terminated by adding 75 μL of ice-cold methanol. The reaction mixtures were then vortexed for 30 s and centrifuged at 15,000 rcf for 15 min. […] The percentage of test compound remaining at the individual time points was normalized by the 0-min.
(§5) 10 µM in duplicate (n=2) at 37 °C. The reactions were terminated at time points of 0, 30, 60 and 120 min by adding ice-cold methanol. Following centrifugation, the supernatant was analyzed using UHPLC-Q E xa ct ive Orbitrap MS. The percentage of test compound remaining at the individual time points relative to the 0 min sample was determined S12

[4] = type: in vitro ADME, mouse; conditions: 10 μM
Description: as §4, §5

HepG2 cells [5] = system: HepG2 cells
HepG2 cells [6] = assay: cells; conditions: Homo sapiens, HepG2, 24 h, read-out: IC50 (HepG2 cell viability)
in vivo = conditions: 50 mg/kg
Description: The whole blood samples were centrifuged at rcf 2000 for 5 min for the plasma separation of plasma. The plasma samples were stored at −80 °C before analysis. All the samples were analyzed with a Q Exactive orbitrap MS coupled with UHPLC (Thermo Fisher Scientific, San Jose, CA). LC-Q Exactive MS was operated in the same parameters used in the cell uptake assay above. The concentration of these compounds in plasma was quantified using individual calibration curves.
PK parameters such as half-time (T1/2), area under the plasma concentration–time curve during the period of observation (AUC0–t), area under the plasma concentration–time curve from zero to infinity (AUC0–∞), clearance normalized by the bioavailability (CL/F), and the mean residence time (MRT) were calculated by WinNonlin software (Certara, Princeton, NJ) by noncompartmental analysis. The plasma concentration–time curves were plotted in Prism 7 (GraphPad, San Diego, CA) as mean ± S.D.
Mouse PK of CDD compounds, 50 mg/kg
samples we re collected at 0, 5, 10, 15, 30 m in , 1, 2, 4, 6 and 8 h af ter dosing. P la sm a samples we re separated, prepared and analyzed wit h LC-MS. The compound
± SD (n=4). Tmax, time to rea ch the m a ximum pla sma concentration. Cm ax, maximum p las m a concentration. T1/2, half-lif e . AUC, area under the cu rve . CL, clea ran ce . F,
bioavailability. M R T, mean residence time.

in vitro = conditions: human
M^pro variant A173V = conditions: previously shown; cited from earlier work
[7] = system: M^pro variant ΔP168/A173V; conditions: previously shown; cited from earlier work

CCC[C@H](NC(=O)c1cccc2nc(-c3cncc4ccccc34)n([C@H]3C[C@H](C(=O)NC)C3)c12)c1ccc(C(F)(F)F)cc1 [CDD-1733]
inhibition of enzymatic activity (cathepsin B): None of these inhibitors blocked the enzymatic activity
inhibition of enzymatic activity [1]: None of these inhibitors blocked the enzymatic activity
inhibition of enzymatic activity (renin): None of these inhibitors blocked the enzymatic activity
inhibition of enzymatic activity (thrombin): None of these inhibitors blocked the enzymatic activity
cell uptake (permeability) (HepG2 cells [2]): good permeability
compound remaining in plasma ([3]; human plasma, 37 °C, after 2 h incubation): 80%
compound remaining in plasma ([4]; mouse plasma, 37 °C, after 2 h incubation): 80%
cytotoxicity (HepG2 cells [5]; HepG2 cells): no obvious cytotoxicity
IC50 (HepG2 cells [6]): > 100 µM

CNC(=O)[C@H]1C[C@H](n2c(-c3cncc4ccccc34)nc3cccc(C(=O)N[C@@H](C)c4ccc5ccccc5c4)c32)C1 [CDD-1819]
inhibition of enzymatic activity (cathepsin B): None of these inhibitors blocked the enzymatic activity
inhibition of enzymatic activity [1]: None of these inhibitors blocked the enzymatic activity
inhibition of enzymatic activity (renin): None of these inhibitors blocked the enzymatic activity
inhibition of enzymatic activity (thrombin): None of these inhibitors blocked the enzymatic activity
compound remaining in plasma ([3]; human, plasma, 2 h): 80%
compound remaining in plasma ([4]; mouse, plasma, 2 h): 80%
MRT inf (in vivo; male, mouse, in vivo, po): 1.42 ± 0.16 h
MRT last (in vivo; male, mouse, in vivo, po): 1.31 ± 0.12 h
Tmax (in vivo; male, mouse, in vivo, po): 0.33 ± 0.14 h
half-life (in vivo; male, mouse, plasma, oral): 1.2 ± 0.1 h
CL/F (in vivo; mice, per oral gavage (po.), n=4, mean ± SD): 7.26 ± 1.81 mg/ ( hr*µmol/L)/kg
cytotoxicity (HepG2 cells [5]): no obvious cytotoxicity
IC50 (HepG2 cells [6]): > 100 µM
viability at 24 h, 100 µM (in vitro): > 80%

CC(C)(C)[C@H](NC(=O)C(F)(F)F)C(=O)N1C[C@H]2[C@@H]([C@H]1C(=O)N[C@H](C#N)C[C@@H]1CCNC1=O)C2(C)C [Nirmatrelvir, nirmatrelvir]
increase in Ki relative to WT (M^pro variant A173V): 50 fold
increase in Ki relative to WT [7]: 600 fold
